Patent publication US6360588B1, “Materials and methods for the analysis of substances passing through a membrane” (priority 1998, dated 2002)

Assay: diffusion through polydimethylsiloxane membrane (MAPI, electrospray mass spectrometry detection)
Assay type: physicochemical
Settings: polydimethylsiloxane membrane 0.01 to 0.05 inches thick; result in words, curves in FIGS. 8-11
From the text: In operation, once the membrane and spacer are in place and the top portion 50 and bottom plate 56 are secured, a substance under study can be placed in contact with the first side of the membrane. Carrier fluid can be flowing through volume 64 and to a detection means. As the substance diffuses through the membrane and exits the second side of the membrane, it can be carried to the detection apparatus for analysis. In this way, an accurate time dependent curve can be generated as to the amounts of the substance under study exiting the second side of the membrane. This example illustrates the results from diffusion of a variety of substances through polydimethylsiloxane membrane obtained from PILLAR SCIENTIFIC, ranging in thickness from 0.01 inches to 0.05 inches. A mass spectrometer was used as a detection apparatus with electrospray ionization utilized to ionize the sample for detection in the mass spectrometer.

Structure (SMILES) | diffusion through the membrane (relative abundance exiting the second side as a function of time)
Clc1cccc(Cl)c1N=C1NCCN1 [clonidine] | clonidine diffusing through the membrane
CCOC(=O)c1ccc(O)cc1 [ethyl paraben] | diffusion of ethyl paraben through the polydimethylsiloxane membrane
COC(=O)c1ccc(O)cc1 [methyl paraben] | diffusion of methyl paraben through the polydimethylsiloxane membrane
CCCCOC(=O)c1ccc(O)cc1 [n-butyl paraben] | diffusion of n-butyl paraben through the polydimethylsiloxane membrane
